Experimental data from US5157021A, “Insulin derivatives and pharmaceutical preparations containing these derivatives” (Novo Nordisk A/S, priority 1985, dated 1992).

System: guinea pigs
Assay: Hypoglycemia (blood glucose) in guinea pigs after subcutaneous injection of the insulin preparation
Assay type: in vivo, guinea pig
Procedure: 25 ml of a medium containing 1.6% (w/v) of glycerol. 0.33% (w/v) of m-cresol, 1/75M of sodium phosphate, pH value 7.3, were prepared. The solution was sterilized by filtration. 1.5 mg of human insulin-B21-methyl ester, prepared as described in Example 1, were suspended in 1.0 ml of medium.
4.5 mg of human insulin-A17-methyl ester were dissolved in 2.7 ml of 0.015M phosphoric acid. 21 mg of sodium chloride and 4.1 μlitres of an aqueous solution of 152 mM zinc chloride were added. The solution was sterilized by filtration. The pH value of the solution was adjusted to 8.0 under aseptic conditions with a sterile aqueous solution of sodium hydroxide. The pH value of the solution was then readjusted to 7.3 with sterile hydrochloric acid, and rhombohedral crystals with a mean size of 10 um were formed with gentle stirring at 21° C. The volume was adjusted to 3 ml with sterile water.
Moreover, a sterile solution of 3 ml of 13.5 mM phosphoric acid in admixture with 21 mg of sodium chloride and 9 μlitres of m-cresol was prepared, and the pH value was adjusted to 7.3 with a sterile aqueous solution of sodium hydroxide. The two solutions were combined.
15 mg of human insulin-A4-gln, obtained as described in Example 5, was dissolved in 10 ml of a solution containing 13.5 mM phosphoric acid, 0.3% m-cresol and 1.6% glycerol. The solution was sterilized by filtration, and the pH value was adjusted to 9,0 with a sterile aqueous solution of sodium hydroxide. The pH value was readjusted to 8.2 with a sterile solution of hydrochloric acid, and human insulin-A4-gln crystallized as rhombohedral crystals with gentle stirring.

[1] = dosage 18 μg/kg, crystalline zinc preparation pH 7.3

Human insulin-A4-gln
protracted hypoglycemic effect compared with "Insulatard" at 0.5 IU/kg (subcutaneous injection of crystalline suspension at 0.5 IU/kg): nearly identical both in timing and amplitude

Human insulin-B21-methyl ester
protracted insulin action compared with "Insulatard" (subcutaneous, zinc-free suspension 1.5 mg in 1.0 ml medium, pH 7.3): comparable to the hypoglycemia observed after injection of a standard protamin insulin preparation

Human insulin-A17-methyl ester
biological activity indicated by area below the blood glucose curve, relative to human insulin [1]: nearly the same biological activity as human insulin
hypoglycemia [1]: strongly protracted hypoglycemia
protracted insulin action compared with "Insulatard" [1]: longer than the protracted action of the known injection preparation
